“And” between values parts separate entries of the source, which are not always exact repeats. Equal entries are not always repeated. Where two headings read alike, the source gives them in different places.
Legend:
[1] = biological target: T1, hCA-IX (catalytic domain) (Homo sapiens, UniProt Q16790); test: Thermal shift assay (TSA / differential scanning fluorimetry); format: binding; details: for ΔTm, median: at 40 µM compound, n = 4
hCA-II = biological target: T2, hCA-II (Homo sapiens, UniProt P00918); test: hCA esterase activity inhibition assay (p-nitrophenyl acetate hydrolysis) with IC50 determination; format: biochemical
T2 construct: recombinant hCA-IX (catalytic domain) and hCA-II (full-length protein); made in house; host or cells: E. coli
Protocol: (§1) The catalytic activity of hCA-II and hCA-IX was monitored through the enzymatic hydrolysis of p-nitrophenyl acetate. […]
(§2) hCA esterase activity inhibition screening assay (with IC50 determination) The protocol was adapted from the work by Wu and co-authors.3 Briefly, the catalytic activity of human hCA-IX (catalytic domain) and hCA-II recombinant proteins was monitored by following the hydrolysis of p-nitrophenyl […]
(§3) prepared in DMSO) as a reference compound, were titrated from 200 µM to 0.01 µM at 3× serial dilutions (10-point […]
(§4) HCl, 200 mM NaCl, pH 7.5), and aliquoted into the assay-ready plates with tested compounds immediately prior to the analysis using an automated multichannel dispenser Multidrop Combi (Thermo Fischer Scientific).
(§5) The products of the hydrolysis reaction are acetate and nitrophenolate, which ionizes to give a bright yellow anion […]
(§6) The compounds were formatted into 384-well plates in the following manner. The first two columns (n = 32 wells) […]
(§7) In between, the tested compounds were placed at the defined dilution step of the 10-points concentration curve, each point of which was a quadruplicate (n = 4 wells). Thus, the […]
(§8) deviation of <0.05, were used for further assessment of each point of inhibition curves; they were not shown in the […]
(§9) performed with Labcyte Echo liquid handler to prepare assay-ready plates. Reaction was run in 25 µL of assay buffer […]
(§10) Enzymatic reactions were initiated by pipetting 5 mM stock solution of 4-nitrophenyl acetate (4-NPA) in ethanol to each well (final concentration in the reaction mixture – 0.5 mM for hCA-II and 0.9 mM for hCA-IX). The final reaction volume was 27.5 µL. The enzyme activity was evaluated by monitoring the production of colored product, 4- […]
(§11) SpectraMax M5 (Molecular Devices). The assay was performed twice for each enzyme.
(§12) Each data point of the titration curve was calculated as average of aggregate data value of four measurements per each concentration (technical replicate for each concentration n = 4). The IC50 values were calculated using GraphPad […]
(§13) for maximum inhibition of the enzyme (as described above) and apply this value for further calculation of the percent […]
(§14) Secondly, it was also titrated as one of the tested compounds to ensure that the assay is performing properly withing the given range of the known inhibitor […]
(§15) compounds in Figures S4 and S5.

[2] = biological target: T1, hCA-IX (catalytic domain); test: as above; format: biochemical
Protocol: as §1, §2, §3, §4, §5, §6, §7, §8, §9, §10, §11, §12, §13, §14, §15

[3] = biological target: hCA-II (full-length protein) (Homo sapiens, UniProt P00918); test: Thermal shift assay (TSA / differential scanning fluorimetry); details: for Tm: hCA-II
[4] = 200 nM hCA-II, 0.5 mM 4-NPA, 10-point curve, n = 4, read-out: IC50
[5] = 917 nM hCA-IX, 4-NPA, 10-point curve, n = 4, read-out: IC50
[6] = hCA-II, bound stated, read-out: potency (IC50)
[7] = hCA-IX, bound stated, read-out: potency (IC50)

| ΔTm, median [1] [°C] | Tm ([1]; screening at 20 µM) [°C] | ΔTm ([1]; screening at 20 µM) [°C] | Tm ([1]; screening at 40 µM) [°C] | IC50 (hCA-II; [4]) | IC50 [2, 5] | Tm ([3]; screening at 20 µM) [°C] | Tm ([3]; screening at 40 µM) [°C] | ΔTm at 20 µM ([3]; read-out: ΔTm) [°C] | ΔTm at 40 µM ([3]; read-out: ΔTm) [°C] | IC50 (hCA-II; [6]) [µM] | IC50 ([2]; 917 nM hCA-IX, 4-NPA, 10-point curve, n = 4, listed as 4(16,7,28), read-out: IC50) [µM] | IC50 [2, 7] [µM] | ΔTm at 40 µM ([3]; read-out: ΔTm, median) [°C] | ΔTm ([1]; screening at 40 µM) [°C] | SMILES |
| --- | --- | --- | --- | --- | --- | --- | --- | --- | --- | --- | --- | --- | --- | --- | --- |
| 1.44 | 56.91 | 1.28 | 57.51 | 6.1 µM and 6.07 µM | 23.4 µM | 54.82 | 54.73 | 0.5 | 0.21 |  |  |  |  |  | O=C(NS(=O)(=O)c1ccc(-c2cn(CC3COc4ccccc4O3)nn2)cc1)c1cnsc1 (stereo not drawn) [4{17,7,27}] |
| 1.17 | 55.81 | 0.18 | 57.23 | 8.7 µM and 8.74 µM | 17.3 µM | 55.24 | 55.22 | 0.92 | 0.7 |  |  |  |  |  | Cc1cc(C(=O)NS(=O)(=O)c2cccc(-n3cc(-c4ccc5nonc5c4)nn3)c2)on1 [7{2,21,60}] |
| 1.18 | 56.77 | 1.14 | 57.24 | 1.7 µM | 7.13 µM | 54.35 | 51.97 | 0.03 |  | < 10 | 7.1 | < 10 | -2.55 |  | Cc1cc(C(=O)NS(=O)(=O)c2ccc(-c3cn(CCN(C)Cc4cccc(F)c4)nn3)cc2)ccn1 [4{16,7,28}] |
|  | 56.80 | 1.17 | 56.98 | 0.2 µM | 1.1 µM and 1.11 µM | 51.10 | 49.58 | -3.22 |  | < 10 |  | < 10 | -4.95 | 0.92 | COCC(=O)NS(=O)(=O)c1ccc(-c2cn(CCN(C)Cc3cccc(F)c3)nn2)cc1 [4{16,7,19}] |

Source: article PMC12844257, “Click Chemistry-Enabled Parallel Synthesis of N-Acyl Sulfonamides and Their Evaluation as Carbonic Anhydrase Inhibitors” (Molecules, 2026)
